Measurements: patent US8299048B2, “Hexahydrocyclopentyl[f]indazole sulfonamides and derivatives thereof as selective glucocorticoid receptor modulators” (Merck Sharp & Dohme Corp., priority 2008, dated 2012)

target: T1, glucocorticoid receptor (Homo sapiens, UniProt P04150); test: Ligand binding assay (GR BIND)
T1 construct: endogenous in cells
T1 sequence (P04150 1-777): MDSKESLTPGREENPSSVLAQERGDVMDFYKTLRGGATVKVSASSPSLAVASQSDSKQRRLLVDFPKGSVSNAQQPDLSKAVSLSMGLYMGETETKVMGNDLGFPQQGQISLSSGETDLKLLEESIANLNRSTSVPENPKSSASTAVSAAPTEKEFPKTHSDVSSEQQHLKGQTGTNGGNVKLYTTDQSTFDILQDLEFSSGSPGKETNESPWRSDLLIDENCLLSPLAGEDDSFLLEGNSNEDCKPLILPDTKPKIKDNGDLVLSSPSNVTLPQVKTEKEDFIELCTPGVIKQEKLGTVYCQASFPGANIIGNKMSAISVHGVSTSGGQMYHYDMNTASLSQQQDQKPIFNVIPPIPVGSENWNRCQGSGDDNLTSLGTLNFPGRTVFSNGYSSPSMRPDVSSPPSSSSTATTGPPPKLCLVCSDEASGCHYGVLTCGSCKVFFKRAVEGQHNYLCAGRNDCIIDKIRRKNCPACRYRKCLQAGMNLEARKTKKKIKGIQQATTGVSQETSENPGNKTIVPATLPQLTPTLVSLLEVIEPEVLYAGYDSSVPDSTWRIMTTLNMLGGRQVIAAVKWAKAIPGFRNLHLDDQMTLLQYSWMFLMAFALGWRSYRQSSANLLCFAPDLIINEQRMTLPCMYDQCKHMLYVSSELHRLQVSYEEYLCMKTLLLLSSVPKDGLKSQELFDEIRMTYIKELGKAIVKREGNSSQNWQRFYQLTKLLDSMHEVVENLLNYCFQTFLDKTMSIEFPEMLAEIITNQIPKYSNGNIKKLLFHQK
Procedure: • Materials: • Binding Buffer: TEGM (10 mM Tris-HCl, 1 mM EDTA, 10% glycerol, 1 mM beta-mecaptoethanol, 10 mM Sodium Molybdate, pH 7.2) • 50% HAP Slurry: Calbiochem Hydroxylapatite, Fast Flow, in 10 mM Tris, pH 8.0 and 1 mM EDTA. • Wash Buffer: 40 mM Tris, pH7.5, 100 mM KCl, 1 mM EDTA and 1 mM EGTA.
Phenol red-free Trypsin-EDTA is diluted in the same PBS1:10. The cell layers are rinsed with 1× Trypsin, extra Trypsin is poured out, and the cell layers are incubated at 37° C. for ˜2 min. The flask is tapped and checked for signs of cell detachment. Once the cells begin to slide off the flask, the complete media is added. The cells are counted at this point, then diluted to the appropriate concentration and split into flasks or dishes for further culturing (Usually 1:3 to 1:6 dilution).
When the cells are 70 to 85% confluent, they are detached as described above, and collected by centrifuging at 1000 g for 10 minutes at 4° C. The cell pellet is washed twice with TEGM (10 mM Tris-HCl, 1 mM EDTA, 10% glycerol, 1 mM beta-mercaptoethanol, 10 mM Sodium Molybdate, pH 7.2). After the final wash, the cells are resuspended in TEGM at a concentration of 10^7 cells/mL. The cell suspension is snap frozen in liquid nitrogen or ethanol/dry ice bath and transferred to −80° C. freezer on dry ice. Before setting up the binding assay, the frozen samples are left on ice-water to just thaw (˜1 hr). Then the samples are centrifuged at 12,500 g to 20,000 g for 30 min at 4° C. The supernatant is used to set-up assay right away. If using 50 μL of supernatant, the test compound can be prepared in 50 μL of the TEGM buffer.
1×TEGM buffer is prepared, and the isotope-containing assay mixture is prepared in the following order: EtOH (2% final concentration in reaction), 3H-DEX (Amersham Biosciences) and 1×TEGM. [e.g. For 100 samples, 200 μL (100×2) of EtOH+4.25 μL of 1:10 ^3H—Dex stock+2300 μL (100×23) 1×TEGM]. The compound is serially diluted, e.g., if starting final conc. is 1 μM, and the compound is in 25 μL of solution, for duplicate samples, 75 μL of 4×1 μM solution is made and 3 μL of 100 μM is added to 72 μL of buffer, and 1:5 serial dilution.
25 μL of ^3H-DEX (6 nM) trace and 25 μL compound solution are first mixed together, followed by addition of 50 μL receptor solution. The reaction is gently mixed, spun briefly at about 200 rpm and incubated at 4° C. overnight. 100 μL of 50% HAP slurry is prepared and added to the incubated reaction which is then vortexed and incubated on ice for 5 to 10 minutes. The reaction mixture is vortexed twice more to resuspend HAP while incubating reaction. The samples in 96-well format are then washed in wash buffer using The FilterMate™ Universal Harvester plate washer (Packard). The washing process transfers HAP pellet containing ligand-bound expressed receptor to Unifilter-96 GF/B filter plate (Packard). The HAP pellet on the filter plate is incubated with 50 μL of MICROSCINT (Packard) scintillint for 30 minutes before being counted on the TopCount microscintillation counter (Packard). […] are calculated using DEX as a reference.

Row | SMILES | Ki [nM]
1 | C[C@]12Cc3cnn(-c4ccc(F)cc4)c3C=C1CC[C@@H]2CN(CCc1ccccc1F)S(=O)(=O)Cc1ccccc1Cl [Example 107, 1-(2-chlorophenyl)-N-[2-(2-fluorophenyl)ethyl]-N-{[(4αR,5S)-1-(4-fluorophenyl)-4α-methyl-1,4,4α,5,6,7-hexahydrocyclopenta[f]indazol-5-yl]methyl}methanesulfonamide] | 1.8
2 | C[C@]12Cc3cnn(-c4ccc(F)cc4)c3C=C1CC[C@@H]2CN(CCc1ccccc1F)S(=O)(=O)Cc1ccccc1C(F)(F)F [Example 108, N-[2-(2-fluorophenyl)ethyl]-N-{[(4αR,5S)-1-(4-fluorophenyl)-4α-methyl-1,4,4α,5,6,7-hexahydrocyclopenta[f]indazol-5-yl]methyl}-1-[2-(trifluoromethyl)phenyl]methanesulfonamide] | 2.3
3 | CC(C1CCC2=Cc3c(cnn3-c3ccc(F)cc3)C[C@@]21C)N(CC1CC1)S(=O)(=O)CC(F)(F)F (stereo partly drawn) [Example 109, N-(cyclopropylmethyl)-2,2,2-trifluoro-N-{1-[(4αR)-1-(4-fluorophenyl)-4α-methyl-1,4,4α,5,6,7-hexahydrocyclopenta[f]indazol-5-yl]ethyl}ethanesulfonamide] | 2.1
4 | C[C@]12Cc3cnn(-c4ccc(F)cc4)c3C=C1CC[C@@H]2CN(CC1CCCO1)S(=O)(=O)Cc1cccc(C(F)(F)F)c1 (stereo partly drawn) [Example 110, N-{[(4αR,5S)-1-(4-fluorophenyl)-4α-methyl-1,4,4α,5,6,7-hexahydrocyclopenta[f]indazol-5-yl]methyl}-N-(tetrahydrofuran-2-ylmethyl)-1-[3-(trifluoromethyl)phenyl]methanesulfonamide] | 1.4
5 | C[C@]12Cc3cnn(-c4ccc(F)cc4)c3C=C1CC[C@@H]2CN(CCc1ccccc1F)S(=O)(=O)Cc1ccc(Cl)c(Cl)c1 [Example 111, 1-(3,4-dichlorophenyl)-N-[2-(2-fluorophenyl)ethyl]-N-{[(4αR,5S)-1-(4-fluorophenyl)-4α-methyl-1,4,4α,5,6,7-hexahydrocyclopenta[f]indazol-5-yl]methyl}methanesulfonamide] | 1.8
6 | C[C@H](O)CN(C[C@H]1CCC2=Cc3c(cnn3-c3ccc(F)cc3)C[C@@]21C)S(=O)(=O)c1ccc(F)c(Cl)c1 [Example 112, 3-chloro-4-fluoro-N-{[(4αR,5S)-1-(4-fluorophenyl)-4α-methyl-1,4,4α,5,6,7-hexahydrocyclopenta[f]indazol-5-yl]methyl}-N-[(2S)-2-hydroxypropyl]benzenesulfonamide] | 1.7
7 | C[C@H](O)CN(C[C@H]1CCC2=Cc3c(cnn3-c3ccc(F)cc3)C[C@@]21C)S(=O)(=O)CC(F)(F)F [Example 113] | 2.2
8 | C[C@@H](CN(C[C@H]1CCC2=Cc3c(cnn3-c3ccc(F)cc3)C[C@@]21C)S(=O)(=O)CC(F)(F)F)OS(=O)(=O)CC(F)(F)F [Example 114, (1S)-2-{{[(4αR,5S)-1-(4-fluorophenyl)-4α-methyl-1,4,4α,5,6,7-hexahydrocyclopenta[f]indazol-5-yl]methyl}[(2,2,2-trifluoroethyl)sulfonyl]amino}-1-methylethyl 2,2,2-trifluoroethanesulfonate] | 0.8
9 | C[C@@H](O)CN(C[C@H]1CCC2=Cc3c(cnn3-c3ccc(F)cc3)C[C@@]21C)S(=O)(=O)c1ccc(F)c(Cl)c1 [Example 115, 3-chloro-4-fluoro-N-{[(4αR,5S)-1-(4-fluorophenyl)-4α-methyl-1,4,4α,5,6,7-hexahydrocyclopenta[f]indazol-5-yl]methyl}-N-[(2R)-2-hydroxypropyl]benzenesulfonamide] | 2.9
10 | C[C@]12Cc3cnn(-c4ccc(F)cc4)c3C=C1CC[C@@H]2CN(CCc1ccccc1O)S(=O)(=O)c1ccccc1F [Example 116, 2-fluoro-N-{[(4αR,5S)-1-(4-fluorophenyl)-4α-methyl-1,4,4α,5,6,7-hexahydrocyclopenta[f]indazol-5-yl]methyl}-N-[2-(2-hydroxyphenyl)ethyl]benzenesulfonamide] | 1.4
